# Measurements published in patent US11160758B2, “Modified release formulations and uses thereof” (Sunovion Pharmaceuticals Inc., priority 2019, dated 2021).
# Tests used:
# healthy volunteers [1] = experiment: REM suppression polysomnography (PSG) study of (R)-amisulpride (Example 5); format: in vivo, human
# Protocol: REM suppression was the biomarker used to determine clinically-significant levels of 5-HT7 antagonism and its pharmacodynamics. REM suppression was assessed by total time in minutes spent in REM sleep and by the latency in minutes to REM sleep. […] REM suppression in human volunteers is an established translational biomarker useful to identify doses for antidepressant effects in patients.
# The primary endpoint was REM sleep suppression as determined at post dose time points in the measures of latency to REM sleep, REM sleep time in minutes, and percent decrease in REM sleep time relative to total sleep time.
# The REM suppression time value is the Least Square Mean differences from placebo, and the error bars represent the 90% confidence interval (CI).
# The results presented in Tables 21-23 were determined from an analysis of the date based on a linear mixed model with terms for treatment, period, and treatment sequence as fixed effects, respective baseline PSG value as a continuous covariate, and treatment-by-baseline PSG interaction, and subject nested within sequence as a random effect, the Kenward and Roger correction for the degrees of freedom and an unstructured covariance structure to model the intrasubject correlation. The abbreviations used in Tables 21-23 are as follows: PSG=polysomnography; CI=confidence interval; LS=least-squares; REM=rapid eye movement; SE=standard error.
# freely moving rats = experiment: Sleep study of (R)-amisulpride, EEG/EMG (Example 3A); format: in vivo, rat; settings: 10, 30, 100 mg/kg, p.o.
# Protocol: Rapid eye movement (REM) sleep time, non-rapid eye movement (NREM) sleep time, WAKE time were measured using electroencephalogram (EEG) and electromyogram (EMG) recordings. […] EEG and EMG recordings were made for 6 hr starting at the beginning of the light phase. Vehicle (0.05 N HCl/0.5% Methyl Cellulose 400 solution) or dosing suspensions were orally administered 10 min before the beginning of light phase. The volume of administration was 5 mL/kg. The order of drug treatment varied pseudo-randomly and at least 1 week was allowed between the experiments for individual animals.
# A radio transmitter (TL11M2-F40-EET; Data Science International, New Brighton, Minn., USA) was implanted subcutaneously in the back of anesthetized animals, and a pair of electrode wires was stereotaxically implanted into the skull in the following locations: one in the frontoparietal (2 mm anterior to the bregma and 2 mm left to the midline), and the other in parietal (5 mm posterior to the bregma and 2 mm right to the midline) areas. The EEG electrodes were fixed using dental cement. Electromyograms (EMG) were recorded from the dorsal neck muscle. […] EEG/EMG were recorded in the home cages in a soundproof box using Dataquest A.R.T. software (Data Science International, New Brighton, Minn., USA) at a sampling rate of 500 Hz. […]
# healthy volunteers [2] = experiment: concentration-QTc analysis, linear mixed-effects model (Example 7A); format: in vivo, human
# Protocol: The effect of amisulpride (enantiomers and total) on change-from-baseline QTcF and heart rate (ΔQTcF and ΔHR) was evaluated based on a linear mixed-effects model at each nominal post-dosing time point (“by-time point analysis”) using the intersection union test. In the concentration-QTc analysis (primary analysis), the full model included ΔQTcF as the dependent variable, time-matched plasma concentrations of R- and S- and total amisulpride enantiomers as the explanatory variates, centered baseline QTcF (i.e., baseline QTcF for individual subject subtracting the population mean baseline QTcF for all subjects) as an additional covariate, a fixed intercept, and random effect for both intercept and slopes per subject, when applicable. A pre-specified model selection procedure was then performed to choose a primary model from among the full model and reduced models from possible first order combinations (without quadratic and interaction terms) among these 3 analytes of concentrations of R- and S-enantiomers and total amisulpride (including models with only 1 analyte and with any 2 analytes).
# The observations and a linear mixed-effects model parameters derived therefrom was used to estimate the ΔQTcF at the observed Cmax of the formulation Lots studied.
# [3] = Coukell et al 1996; cited from earlier work
# [4] = human, in vivo, po
# clinical = settings: human, in vivo
# [5] = linear mixed-effects model, total amisulpride concentration vs ΔQTcF
compound,measurement,setting,value
"CCN1CCC[C@@H]1CNC(=O)c1cc(S(=O)(=O)CC)c(N)cc1OC [(R)-amisulpride, R-4-Amino-N-[(1-ethyl-2-pyrrolidinyl)methyl]-5-(ethylsulfonyl)-2-methoxybenzamide]",tolerability,healthy volunteers [1]; healthy subjects,well tolerated
same,vital signs and ECGs,healthy volunteers [1]; in vivo,normal
same,NREM sleep time and WAKE time,freely moving rats,no observed effect
same,REM sleep duration,freely moving rats; light phase,reduced REM sleep duration in dose-dependent manner
"CCN1CCCC1CNC(=O)c1cc(S(=O)(=O)CC)c(N)cc1OC (stereo not drawn) [amisulpride, 4-amino-N-[(1-ethylpyrrolidin-2-yl)methyl]-5-ethylsulfonyl-2-methoxy-benzamide]",estimated population slope of the concentration-QTc relationship,healthy volunteers [2]; 90% CI: 0.0257 to 0.0369,0.031 ms per ng/mL
same,intercept of the concentration-QTc relationship,healthy volunteers [2]; 90% CI: −4.88 to 0.27,-2.3 ms
same,Centered Baseline Effect of concentration-QTc relationship model,healthy volunteers [2]; [5],-0.23 ms
same,Intercept of concentration-QTc relationship model,healthy volunteers [2]; [5],-2.31 ms
same,Total Amisulpride Slope of concentration-QTc relationship model,healthy volunteers [2]; [5],0.031 ms per ng/mL
same,terminal plasma half-life,[3],approximately 12 hours
same,washout observed for blood plasma concentration,[4],approximately 24 hour
same,concentration at 0.5 hr,clinical,346 ng/mL
same,concentration at 1 hr,clinical,294 ng/mL
same,concentration at 2 hr,clinical,432 ng/mL
same,concentration at 3 hr,clinical,516 ng/mL
same,concentration at 4 hr,clinical,272 ng/mL
same,concentration at 6 hr,clinical,163 ng/mL
same,concentration at 8 hr,clinical,96.8 ng/mL
same,concentration at 10 hr,clinical,69.9 ng/mL
same,concentration at 12 hr,clinical,55.6 ng/mL
same,concentration at 24 hr,clinical,21.2 ng/mL
same,concentration at 36 hr,clinical,9.84 ng/mL
same,concentration at 48 hr,clinical,7.02 ng/mL
same,concentration at 72 hr,clinical,1.48 ng/mL
